Test results published in EP2951180B1, “2,6,7,8 SUBSTITUTED PURINES AS HDM2 INHIBITORS” (Merck Sharp & Dohme Corp., priority 2013, dated 2014).
Read-outs that look alike come from different tables or passages of the source.

Target: T1, HDM2 (Homo sapiens, UniProt Q00987)
T1 construct: Thioredoxin (N); made in house; host or cells: E. coli strain BL21(DE3)Rosetta
Assay: HDM2 FRET assay (inhibition of binding of FITC labeled p53-pocket peptide to HDM2)
Details: read-out: FRET IC50
In short: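 Signal is read as the 520/495 nm emission ratio and converted to percent inhibition; nonlinear sigmoidal regression yields IC50. The assay mixes HDM2 (0.5 nM), FITC-p53 peptide (3 nM) and Tb anti-His antibody (0.25 nM) at 0.1% DMSO.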

[1] = 0.5 nM HDM2 (residues 17 to 125), 3nM peptide, two hour incubation at room temperature

T1 sequence (Q00987 17-125): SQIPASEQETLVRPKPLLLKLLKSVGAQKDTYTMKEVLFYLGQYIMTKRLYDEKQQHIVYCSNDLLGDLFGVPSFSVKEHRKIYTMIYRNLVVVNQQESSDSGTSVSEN

C[C@@H](Nc1nc(N2CCC[C@]2(C)C(=O)O)nc2nc(N3CCOC[C@H]3c3ccccc3)n(C[C@H]3CC[C@H](C)CC3)c12)C1CCC1 [Example 13.7, 1-(6-{[(1R)-1-cyclobutylethyl]amino}-7-[(trans-4-methylcyclohexyl)methyl]-8-[(3R)-3-phenylmorpholin-4-yl]-7H-purin-2-yl)-2-methyl-D-proline]
IC50 [1]: 224 nM

C[C@@H](Nc1nc(C(=O)O)nc2nc(C3CCCCN3)n(Cc3ccc(C(F)(F)F)cc3)c12)C1CCC1 (stereo partly drawn) [Example 10.24, 6-(((R)-1-Cyclobutylethyl)amino)-8-(piperidin-2-yl)-7-(4-(trifluoromethyl)benzyl)-7H-purine-2-carboxylic acid]
IC50 (Table 10): 96.3 nM

C[C@@H](CO)Nc1nc2nc(C(=O)O)nc(N[C@H](C)C3CCC3)c2n1Cc1ccc(C(F)(F)F)cc1 [Example 9.10, 6-{[(1R)-1-cyclobutylethyl]amino}-8-{[(1S)-2-hydroxy-1-methylethyl]amino}-7-[4-(trifluoromethyl)benzyl]-7H-purine-2-carboxylic acid]
IC50 (Table 9): 85.9 nM

C[C@H]1COCCN1c1nc2nc(-c3noc(=O)[nH]3)nc(-c3cccc(Cl)c3)c2n1C[C@H]1CC[C@H](C)CC1 [Example 16.2, 3-(6-(3-chlorophenyl)-7-(((trans)-4-methylcyclohexyl)methyl)-8-((S)-3-methylmorpholino)-7H-purin-2-yl)-1,2,4-oxadiazol-5(4H)-one]
IC50 [1]: 106 nM

CC(C)c1ccnc(-c2nc3nc(C(=O)O)nc(N[C@H](C)C4CCC4)c3n2C[C@H]2CC[C@H](C(F)(F)F)CC2)c1 [Example 18.1, 6-(((R)-1-cyclobutylethyl)amino)-8-(4-isopropylpyridin-2-yl)-7-((trans-4-(trifluoromethyl)cyclohexyl)methyl)-7H-purine-2-carboxylic acid]
IC50 (Table 18): 3.46 nM

Cc1ncc(Cl)cc1-c1nc(-c2n[nH]c(=O)o2)nc2nc(N3CCOC[C@H]3c3ccccc3)n(C[C@H]3CC[C@H](C)CC3)c12 [Example 16.159, 5-{6-(5-chloro-2-methylpyridin-3-yl)-7-[(trans-4-methylcyclohexyl)methyl]-8-[(3R)-3-phenylmorpholin-4-yl]-7H -purin-2-yl}-1,3,4-oxadiazol-2(3H)-one]
IC50 [1]: 0.704 nM

CC(C)c1ccnc(-c2nc3nc(-c4nnn[nH]4)nc(N[C@H](C)C4CCC4)c3n2Cc2ccc(C(F)(F)F)cc2)c1 [Example 12.1, N-[(1R)-1-cyclobutylethyl]-8-[4-(propan-2-yl)pyridin-2-yl]-2-(1H-tetrazol-5-yl)-7-[4-(trifluoromethyl)benzyl]-7H-purin-6-amine]
IC50 [1]: 8.35 nM

C[C@@H](Nc1nc(C(=O)O)nc2nc(C(C)(C)c3ccccc3)n(C[C@H]3CC[C@H](C)CC3)c12)C1CCC1 [Example 20.2, 6-{[(1R)-1-cyclobutylethyl]amino}-7-[(trans-4-methylcyclohexyl)methyl]-8-(1-methyl-1-phenylethyl)-7H-purine-2-carboxylic acid]
IC50 (Table 20): 3.45 nM

CC1CN(c2nc(-c3noc(=O)[nH]3)nc3nc(N4CCOC[C@H]4c4ccccc4)n(C[C@H]4CC[C@H](C)CC4)c23)CCO1 (stereo partly drawn) [Example 26.3, 3-{7-[(trans-4-methylcyclohexyl)methyl]-6-(2-methylmorpholin-4-yl)-8-[(3R)-3-phenylmorpholin-4-yl]-7H-purin-2-yl}-1,2,4-oxadiazol-5(4H)-one]
IC50 (Table 26): 14.5 nM

C[C@@H](Nc1nc(-c2noc(=O)[nH]2)nc2nc(C3(O)CCCCC3)n(C[C@H]3CC[C@H](C)CC3)c12)C1CCC1 [Example 22.43, 3-(6-{[(1R)-1-cyclobutylethyl]amino}-8-(1-hydroxycyclohexyl)-7-[(trans-4-methylcyclohexyl)methyl] -7H-purin-2-yl)-1,2,4-oxadiazol-5(4H)-one]
IC50 (Table 22): 13.1 nM

C[C@@H]1CN(C(=O)CO)CCN1c1nc2nc(-c3noc(=O)[nH]3)nc(N[C@H](C)C3CCC3)c2n1C[C@H]1CC[C@H](C)CC1 [Example 17.18, 3-(6-{[(1R)-1-cyclobutylethyl]amino}-8-[(2R)-4-(hydroxyacetyl)-2-methylpiperazin-1-yl]-7-[(trans-4-methylcyclohexyl)methyl]-7H-purin-2-yl)-1,2,4-oxadiazol-5(4H)-one]
IC50 (Table 17.2): 3.79 nM

C[C@@H](Nc1nc(-c2noc(=O)[nH]2)nc2nc(C(=O)C(C)(C)C)n(C[C@H]3CC[C@H](C)CC3)c12)C1CCC1 [Example 22.1, 3-(6-{[(1R)-1-cyclobutylethyl]amino}-8-(2,2-dimethylpropanoyl)-7-[(trans-4-methylcyclohexyl)methyl]-7H-purin-2-yl)-1,2,4-oxadiazol-5(4H)-one]
IC50 (Table 22): 4.65 nM

C[C@@H](Nc1nc(C(=O)O)nc2nc(C3=N[C@H](c4ccccc4)CO3)n(Cc3ccc(C(F)(F)F)cc3)c12)C1CCC1 [Example 10.22, 6-(((R)-1-Cyclobutylethyl)amino)-8-((R)-4-phenyl-4,5-dihydrooxazol-2-yl)-7-(4-(trifluoromethyl)benzyl)-7H-purine-2-carboxylic acid]
IC50 (Table 10): 28.4 nM

C[C@@H](Nc1nc(-c2n[nH]c(=O)o2)nc2nc(C3(c4ccccc4)CCC3)n(C[C@H]3CC[C@H](C)CC3)c12)C1CCC1 [Example 20.10, 5-[6-{[(1R)-1-cyclobutylethyl]amino}-7-[(trans-4-methylcyclohexyl)methyl]-8-(1-phenylcyclobutyl)-7H-purin-2-yl]-1,3,4-oxadiazol-2(3H)-one]
IC50 (Table 20): 28.9 nM

C[C@@H](Nc1nc(-c2noc(=O)[nH]2)nc2nc(N(C)Cc3noc(C4CC4)n3)n(C[C@H]3CC[C@H](C)CC3)c12)C1CCC1 [Example 11.75, 3-(6-{[(1R)-1-cyclobutylethyl]amino}-8-{[(5-cyclopropyl-1,2,4-oxadiazol-3-yl)methyl](methyl)amino}-7-[(trans-4-methylcyclohexyl)methyl]-7H-purin-2-yl)-1,2,4-oxadiazol-5(2H)-one]
IC50 (Table 11): 9.58 nM

C[C@@H](Nc1nc(-c2noc(=O)[nH]2)nc2nc(N3CCC[C@H]3c3nnnn3C)n(C[C@H]3CC[C@H](C)CC3)c12)C1CCC1 [Example 11.110, 3-(6-{[(1R)-1-cyclobutylethyl]amino}-7-[(trans-4-methylcyclohexyl)methyl]-8-[(2S)-2-(1-methyl-1H-tetrazol-5-yl)pyrrolidin-1-yl]-7H-purin-2-yl)-1,2,4-oxadiazol-5(2H)-one]
IC50 (Table 11): 6.76 nM

C[C@@H]1COC[C@@H](C)N1c1nc2nc(-c3noc(=O)[nH]3)nc(-c3cccc(Cl)c3)c2n1C[C@H]1CC[C@H](C)CC1 [Example 16.60, 3-{6-(3-chlorophenyl)-8-[(3R,5R)-3,5-dimethylmorpholin-4-yl]-7-[(trans-4-methylcyclohexyl)methyl]-7H-purin-2-yl}-1,2,4-oxadiazol-5(4H)-one]
IC50 [1]: 2.23 nM

CC([C@H]1CC[C@H](C)CC1)n1c(N2CCC[C@H]2CF)nc2nc(-c3n[nH]c(=O)o3)nc(-c3cncc(Cl)c3)c21 (single isomer, unassigned) [Example 18.48]
IC50 (Table 18): 8.12 nM

COc1ncc(Cl)cc1-c1nc(-c2n[nH]c(=O)o2)nc2nc(N3CCOC[C@H]3c3ccccc3)n(C[C@H]3CC[C@H](C)CC3)c12 [Example 16.157, 5-{6-(5-chloro-2-methoxypyridin-3-yl)-7-[(trans-4-methylcyclohexyl)methyl]-8-[(3R)-3-phenylmorpholin-4-yl]-7H-purin-2-yl} - 1,3,4-oxadiazol-2(3H)-one]
IC50 [1]: 0.882 nM
